# Assay results published in PubChem BioAssay AID1996.
# Conditions: buffer; pH 7.4; 200.0 µM
row,solubility kinetic [µg/mL],Structure (SMILES)
1,< 0.3,CCOc1ccccc1NC(=O)C(=O)NCCC1=CCCCC1
2,22.2,CC(=O)c1c(C)nc2ccc(C)cc2c1-c1ccccc1
3,10.3,Cc1cc(C(=O)Nc2ccccc2N2CCOCC2)c(C)o1
4,> 54.6,CN(CC(=O)NCc1ccccc1Cl)CC(=O)Nc1cccc(F)c1
5,25.1,c1ccc(Oc2ncnc3sccc23)cc1
6,8.6,CCC(=O)Nc1ccc(C(=O)OCc2ccccc2)cc1
7,< 0.4,CCOC(=O)c1sc(NC(=O)CC(C)c2ccccc2)nc1C (stereo not given)
8,> 47,O=C(COC(=O)c1cccc2ccccc12)NCC1CCCO1 (stereo not given)
9,43.3,COc1ccc(C2(C)NC(=O)N(CC(=O)NC3CC3)C2=O)cc1 (stereo not given)
10,39,Cc1ccc([N+](=O)[O-])cc1NC(=O)CNC1CCCCC1
11,> 50.3,O=C(O)c1cc([N+](=O)[O-])c(NCCC2=CCCCC2)c([N+](=O)[O-])c1
12,> 38.4,COc1ccccc1CC(=O)Nc1cccc(C)n1
13,> 47.6,CC(C)(C)c1ccc(C(=O)NCC(=O)N2CCNC(=O)C2)cc1
14,> 44.5,CCN(CC(=O)N1CCCC1)S(=O)(=O)c1ccccc1
15,8,Cc1cc(Br)ccc1N=C1C(=O)Nc2ccccc21
16,5.4,Cc1cc(NC(=O)/C=C/c2ccccc2)c(C(C)C)cc1O
17,2.6,CCOC(=O)c1sc(-c2cccs2)nc1C
18,54.2,Cc1ccc(OCC(=O)N2CCC3(CC2)CC(=O)c2ccccc2O3)cc1
19,> 46.4,O=C(O)c1ccc(/C=N/N2CCN(c3ccccc3)CC2)cc1
20,1.8,N#Cc1nc(-c2cccc(Cl)c2)oc1N1CCC(C(N)=O)CC1
21,> 55.2,O=C(CCCOc1ccc(Cl)cc1Cl)Nc1ccccc1C(=O)O
22,48,N#Cc1cccc(NC(=O)CCc2ccc(S(=O)(=O)N3CCOCC3)cc2)c1
23,2.1,C/C(=N\S(=O)(=O)c1ccc(C)cc1)NC(=S)Nc1ccccc1
24,> 32.9,COc1cc2c(cc1OC)CC(=O)NC=C2

row,solubility kinetic [µg/mL],Structure (SMILES)
1,28.1,Cl.N=C(N)N1CCc2ccccc21
2,8.4,O=C(CNc1cccc(F)c1)N1CCc2ccccc2C1
3,42.2,COc1ccc(N2CCN(C(=O)c3cc(C)oc3C)CC2)cc1
4,4.5,Cc1ccc(NC(=S)NC(=O)c2cncc(Br)c2)c(C)c1
5,> 47.8,COc1ccccc1C(=O)NCCC(=O)NCc1cccs1
6,> 46.7,NS(=O)(=O)c1ccc(NC(=O)CN2C(=O)CCC2=O)cc1
7,> 42.4,Cc1nc2ccccn2c1C(=O)CSc1ccccc1
8,41.8,CCOC(=O)/C(=C/c1ccc(OC(=O)c2ccncc2)cc1)C(C)=O
9,7.9,CC(NC(=O)Cc1ccc([N+](=O)[O-])cc1)c1ccc2c(c1)OCO2 (stereo not given)
10,0.9,CC(C)/C(C=O)=C(/NC1CCCCC1)c1ccccc1
11,> 44.1,O=c1[nH]c(/C=C/c2ccccc2Cl)c([N+](=O)[O-])c(=O)[nH]1
12,37.6,N#Cc1ccc(Cn2c(-c3ccc(F)cc3)noc2=O)cc1
13,40.1,N#C/C(=C\c1ccccc1)C(=O)N1CCC(C(N)=O)CC1
14,7.7,CS(=O)(=O)N1c2cccc3cccc(c23)S1(=O)=O
15,3.4,O=C(CNC(=O)c1cccc(OC(F)F)c1)Nc1ccc(Cl)cc1
16,> 48.5,Cc1cc(NC(=O)c2ccc(Cl)cc2Cl)n(CCC#N)n1
17,> 43.4,COc1ccc(CNC(=O)COc2ccc(F)cc2)cc1
18,2.2,Cc1nc2ccc(Br)cc2c2c1CC(CBr)O2 (stereo not given)
19,> 69.4,CCOC(=O)C1=C(C)NC(C)=C(C(=O)OCC)C1C(=O)OCC(=O)NCc1ccc(F)cc1
20,2.5,Cc1cc(C)cc(NC(=O)Nc2cccc(S(N)(=O)=O)c2)c1
21,> 27.6,Cl.NCCc1cnc[nH]1
22,6.1,O=c1c2cc(NC(=S)N3CCCC3)ccc2nc2n1CCCCC2
23,> 44.9,COc1ccccc1C(=O)NCCC(=O)Nc1cccnc1
24,51.5,CCn1c(=O)c2cc(C(=O)NCCN(C)C)sc2c2ccccc21

row,solubility kinetic [µg/mL],Structure (SMILES)
1,44,C=C(C)c1cccc(C(C)(C)NC(=O)NCCN(CC)CC)c1
2,40.8,O=C(NCC1COc2ccccc2O1)C1CCN(S(=O)(=O)c2ccccc2)CC1 (stereo not given)
3,17.7,Cc1nc([N+](=O)[O-])c(C(=O)OCc2ccc(C#N)cc2)n1C
4,4.7,N#C/C(=C\c1ccc([N+](=O)[O-])cc1)c1ccccn1
5,13.3,Fc1ccc2nc3c(nc2c1)CCCC3
6,40.3,O=C1CSC(c2ccccc2)N1c1ccccc1F (stereo not given)
7,> 38,C/C(=N\NC(=O)c1ccccc1C)c1cccnc1
8,> 42.2,CCOc1ccc(CNc2nc3ccccc3n2C)cc1
9,22.5,S=c1nc[nH]c2nc[nH]c12
10,0.2,CC(=O)N/C(=N/c1nc(C)cc(C)n1)Nc1ccc(C)cc1Cl
11,> 28.2,NC(=S)Nc1ccc(F)cc1F
12,> 46.2,O=C(NCCCn1ccnc1)c1ccccc1Br
13,> 46.4,O=C(O)/C=C/C(=O)NCCC(c1ccccc1)c1ccccc1
14,> 39.6,O=C(O)c1nc(NCc2ccccc2)ncc1Cl
15,37.1,CC(NCc1cccc(S(=O)(=O)N(C)C)c1)c1ccc(F)cc1 (stereo not given)
16,18,COc1ccc(OC)c(NC(=O)C2CC2c2ccccc2)c1 (stereo not given)
17,3.8,Cc1noc(C)c1-c1nc(CS(=O)(=O)c2ccc(Cl)cc2)no1
18,29.7,Cc1cc(F)ccc1NC(=O)c1cnccn1
19,< 0.2,O=C(Nc1ccccc1Cl)Nc1cccc2cccnc12
20,29.1,c1ccc(CNc2nc(-c3ccccn3)nc3ccccc23)cc1
21,4.5,CC1CCCN(c2nc(N(C)c3ccccc3)nc(N)c2[N+](=O)[O-])C1 (stereo not given)
22,> 49.4,O=C(O)CC1(CC(=O)Nc2cccc(C(F)(F)F)c2)CCCC1
23,> 46.6,CN(Cc1ccc(Cl)cc1)C(=O)c1ccc2ccccc2n1
24,3,COc1ccc(C(=O)OCC(=O)Nc2ccccc2)cc1[N+](=O)[O-]

row,solubility kinetic [µg/mL],Structure (SMILES)
1,21.4,CC(Cl)C(=O)c1c[nH]c2ccccc12 (stereo not given)
2,1.3,NC(=O)c1c(NC(=O)c2ccccc2)sc2c1CCC2
3,50.4,O=C(O)c1ccccc1-c1ccccc1C(=O)NCCc1ccccc1
4,> 51.2,CN(CC(=O)Nc1ccc(F)cc1)CC(=O)N1CCc2ccccc21
5,41.2,CCc1nc(NCCO)c(C#N)c2c1CSC(C)(C)C2
6,> 43,O=C(O)c1cccc(NC(=S)NCc2ccccc2)c1
7,7.6,CC1(C)CC2CC(C)(CN2C(=O)COC(=O)c2ccc(NC(=O)CC#N)cc2)C1 (stereo not given)
8,> 38.6,COc1ccc(OC)c(S(=O)(=O)NC2CC2)c1
9,28.9,N#Cc1ccccc1NC(=S)NC(=O)c1cccnc1
10,0.8,Cc1ccc(C(=O)Nc2cccc3ccccc23)cc1
11,16.2,O=C(Nc1cccc2ncccc12)c1cccc(Br)c1
12,> 29.9,COC(=O)Cn1cc([N+](=O)[O-])nc1C
13,16.7,N#Cc1ccccc1COC(=O)c1cc(=O)c2ccccc2o1
14,> 53.2,O=S(=O)(c1cnccc1N1CCN(CCO)CC1)N1CCCCC1
15,1.2,CC1CC(C)(C)N2C(=O)C(=C(C#N)C#N)c3cccc1c32 (stereo not given)
16,10.1,O=[N+]([O-])c1ccc(CN2CCN(c3ncccn3)CC2)cc1
17,38.5,Cc1cccc(C(=O)NCCNC(=O)c2cnccn2)c1
18,> 50.9,COc1ccc(-n2c(C)c(C)c3c(NCCN(C)C)ncnc32)cc1
19,< 0.3,Cc1cccc(NC(=S)NCc2ccccc2Cl)c1C
20,13.6,COc1ccc(C)cc1NC(=O)CN1CCCC1c1ccc2c(c1)OCCCO2 (stereo not given)
21,< 0.6,CCOc1ccccc1NC(=O)C1COc2ccccc2O1 (stereo not given)
22,> 47.6,O=[N+]([O-])c1ccc(O)c(Nc2c([N+](=O)[O-])ccc3nonc23)c1
23,> 50,CN1CCN(c2nc(NCc3ccco3)nc(N)c2[N+](=O)[O-])CC1
24,> 46.1,CCN(CC)C(=O)c1sc(NC(=O)C(C)C)c(C#N)c1C

row,solubility kinetic [µg/mL],Structure (SMILES)
1,> 24.3,O=c1[nH][nH]c2ccccc2c1=O
2,47.7,CCN(CC)CCOCCOC(=O)C(CC)(CC)c1ccccc1
3,29.6,O=C(c1cc2cc(Cl)ccc2o1)N1CCCC1
4,40.3,CNS(=O)(=O)Cc1ccc2[nH]cc(CCN(C)C)c2c1
5,42.7,Cc1cc(=O)[nH]c(SC(C)C(=O)Nc2cccc3ccccc23)n1 (stereo not given)
6,> 36.1,C=CCNC(=O)c1ccc([N+](=O)[O-])c(Cl)c1
7,> 50.3,CCN1CCN(CC2COc3ccccc3O2)CC1.Cl (stereo not given)
8,34.5,CCOC(=O)CC(NC(=O)c1ccccc1F)c1ccc(C)cc1 (stereo not given)
9,< 0.2,CCCCCC(=O)NC(=S)Nc1cccc(-c2nc3ncccc3o2)c1
10,18.4,NC(=O)c1c(/N=C/c2cccs2)sc2c1CCCC2
11,33.3,CN(C)c1ccc(CNCc2cccnc2)cc1
12,> 60.2,COc1ccc2c(c1)CCCC21NC(=O)N(CC(=O)N2CC(C)OC(C)C2)C1=O (stereo not given)
13,> 43.2,O=C(Cn1cc(C(F)(F)F)ccc1=O)NC1CCCC1
14,44.4,Cc1ccccc1C(=O)N1CCC(C(=O)NC2CCCCC2)CC1
15,13.8,O=C(Nc1ccc(F)cc1)Nc1cccnc1Cl
16,> 50.4,O=C(O)c1cn(-c2ccc(F)cc2)c2cc(Cl)c(F)cc2c1=O
17,> 52.1,Cc1ccc(C(O)P(=O)(OC(C)C)c2ccc(N(C)C)cc2)cc1 (stereo not given)
18,> 50.1,O=C(COc1ccccc1Cl)NCCNC(=O)c1cccnc1
19,31.9,COC(=O)Cn1c(C)nc([N+](=O)[O-])c1Br
20,> 64.2,O=C(COC(=O)CN1C(=O)NC2(CCCC2)C1=O)NCc1ccc(Cl)cc1Cl
21,46.6,COc1cccc(OCCNS(=O)(=O)c2cccc([N+](=O)[O-])c2)c1
22,< 0.5,O=C(Nc1ccc(Cl)cc1)C1C2CCCCC21 (stereo not given)
23,18.7,O=C(Nc1ccc(N2CCCCCC2)cc1)c1ccc[nH]1
24,> 51.5,COC(=O)[C@H](CC(C)C)NC(=O)Nc1ccc(S(N)(=O)=O)cc1
